Reference: ChEMBL document CHEMBL2016562, “Optimization of Pharmacokinetics through Manipulation of Physicochemical Properties in a Series of HCV Inhibitors” (ACS Med Chem Lett, 2011)

Tests used:
[1] = Mean residence time in Sprague-Dawley rat; assay type: ADME, organism-based; conditions: in vivo
[2] = Half life in Sprague-Dawley rat liver microsomes; assay type: ADME, Microsome
[3] = system: Hepatitis C virus; test: Antiviral activity against HCV subtype 1b in replicon cells after 3 days by luciferase reporter gene assay; assay type: functional, Hepacivirus hominis; conditions: genotype 1b, 72 h
[4] = Oral bioavailability in Sprague-Dawley rat after 30 mins; assay type: ADME, organism-based; conditions: in vivo
[5] = Volume of distribution at steady state in Sprague-Dawley rat after 30 mins; assay type: ADME, organism-based; conditions: in vivo, read-out: Vdss
[6] = Clearance in Sprague-Dawley rat after 30 mins; assay type: ADME, organism-based; conditions: in vivo
[7] = Apparent permeability by PAMPA assay; assay type: ADME

MRT [1] [h]	half-life [2] [h]	EC50 [3] [nM]	bioavailability [4] [%]	Vd [5] [L/kg]	clearance [6] [mL/min/kg]	Papp [7] [×10⁻⁶ cm/s]	Structure (SMILES)
0.4	1.62	1	2	–	–	–	COc1ccc(-c2ccc3nc(NCc4ccc(S(N)(=O)=O)cc4)nc(NC4(C#N)CC4)c3n2)cn1
5.3	> 6.58	3	59	–	–	–	FC(F)(F)CNc1nc(NCc2ccc(-n3cncn3)cc2)nc2ccc(-c3ccc(OC4CC4)nc3)nc12
6.9	> 6.58	16	100	2.3	5	–	NS(=O)(=O)c1ccc(CNc2nc(NCC(F)(F)F)c3nc(-c4ccc(F)cc4)ccc3n2)cc1
–	> 6.58	2	4	–	–	–	NS(=O)(=O)c1ccc(CNc2nc(NCC(F)(F)F)c3nc(-c4ccc(-n5cncn5)cc4)ccc3n2)cc1
0.9	> 6.58	5	–	0.9	15	–	N#CC1(Nc2nc(NCc3ccc(S(N)(=O)=O)cc3)nc3ccc(-c4ccc(F)nc4)nc23)CC1
4.9	4.63	10	–	1	3.33	–	NS(=O)(=O)c1ccc(CNc2nc(NCC(F)(F)F)c3nc(-c4ccc(F)nc4)ccc3n2)cc1
11	> 6.58	28	–	4.3	6.67	–	NS(=O)(=O)c1cc(Cl)cc(CNc2nc(NC3(C(F)(F)F)CC3)c3nc(-c4ccc(F)cc4)ccc3n2)c1
0.8	> 6.58	1	1	–	–	–	COc1ccc(-c2ccc3nc(NCc4ccc(S(N)(=O)=O)cc4)nc(NCC(F)(F)F)c3n2)cc1S(C)(=O)=O
2.6	5.85	2	47	–	–	–	COc1ccc(-c2ccc3nc(N[C@H](C)c4ccc(-n5cncn5)cc4)nc(NCC(F)(F)F)c3n2)cc1S(C)(=O)=O
3.5	3.92	4	88	–	–	–	C[C@@H](Nc1nc(NC2(C(F)(F)F)CC2)c2nc(-c3cccc(S(C)(=O)=O)c3)ccc2n1)c1ccc(-n2cncn2)cc1
1.9	> 6.58	2	100	–	–	–	CC1(Oc2nc(NCc3ccc(-n4cncn4)cc3)nc3ccc(-c4ccc(OC5CC5)nc4)nc23)CC1
–	1.17	3	1	–	–	0.004	NS(=O)(=O)c1ccc(CNc2nc(NCC(F)(F)F)c3nc(-c4ccc(NC(=O)C5CC5)cc4)ccc3n2)cc1
–	> 6.58	6	39	–	–	0.09	NS(=O)(=O)c1cc(CNc2nc(NCC(F)(F)F)c3nc(-c4ccc(NC(=O)C5(C(F)(F)F)CC5)cc4)ccc3n2)cc(C(F)(F)F)c1
